Tested on: ovulation in mature female Sprague-Dawley rats
Experiment: standard in vivo rat anti-ovulation test
Settings: injected in bacteriostatic water at about noon on the day of proestrus
Procedure: The betide is assayed in vivo to determine its effectiveness to prevent ovulation in female rats. Inthis test, a specified number of mature female Sprague-Dawley rats, e.g. five to ten, each having a body weight from 225 to 250 grams, are injected with a specified microgram dosage of the betide in bacteriostatic water at about noon on the day of proestrus. Proestrus is the […]. A separate female rat group is used as a control to which the peptide is not administered. Each of the control female rats ovulates on the evening of proestrus; the number of the rats treated which ovulate is recorded.

Compound	anti-ovulatory activity: rats ovulating out of rats treated (dosage 1 μg)	anti-ovulatory activity: rats ovulating out of rats treated (dosage 2.5 μg)	anti-ovulatory activity: rats ovulating out of rats treated (dosage 0.5 μg)	anti-ovulatory activity: rats ovulating out of rats treated (dosage 5 μg)	anti-ovulatory activity: rats ovulating out of rats treated (dosage 10 μg)
Ac-D-2Nal-D-Cpa-D-3Pal-Ser-Aph(acetyl)-D-Aph(acetyl)-D/L-Agl(methyl,isobutyryl)-Lys(isopropyl)-Pro-D-Ala-NH2 [Betide No. 6B]	2 out of 8	0 out of 8			
CC(=O)Nc1ccc(C[C@H](NC(=O)C(NC=O)NC(=O)[C@@H](Cc2cccnc2)NC(=O)[C@@H](Cc2ccc(Cl)cc2)NC(=O)[C@@H](Cc2ccc3ccccc3c2)NC(C)=O)C(=O)N[C@H](Cc2ccc(NC(C)=O)cc2)C(=O)N[C@@H](CC(C)C)C(=O)N[C@@H](CCCCNC(C)C)C(=O)N2CCC[C@H]2C(=O)N[C@H](C)C(N)=O)cc1 (single isomer, unassigned) [Betide No. 2B first isomer, Ac-D-2Nal-D-4Cpa-D-3Pal-D/L-Agl(formyl)-Aph(Ac)-D-Aph(Ac)-Leu-Lys(isopropyl)-Pro-D-Ala-NH2]	2 out of 8		4 out of 5	0/8	
CC(=O)Nc1ccc(C[C@H](NC(=O)[C@H](CO)NC(=O)[C@@H](Cc2cccnc2)NC(=O)[C@@H](Cc2ccc(Cl)cc2)NC(=O)C(NC(C)=O)N(C)C(=O)c2ccc3ccccc3c2)C(=O)N[C@H](Cc2ccc(NC(C)=O)cc2)C(=O)N[C@@H](CC(C)C)C(=O)N[C@@H](CCCCNC(C)C)C(=O)N2CCC[C@H]2C(=O)N[C@H](C)C(N)=O)cc1 (single isomer, unassigned) [Betide No. 3C second isomer, Ac-D/L-Agl(methyl,2-naphthoyl)-D-4Cpa-D-3Pal-Ser-Aph(acetyl)-D-Aph(acetyl)-Leu-Lys(isopropyl)-Pro-D-Ala-NH2]				6 out of 8	
CC(=O)Nc1ccc(C[C@H](NC(=O)[C@H](CO)NC(=O)[C@@H](Cc2cccnc2)NC(=O)[C@@H](Cc2ccc(Cl)cc2)NC(=O)C(NC(C)=O)N(C)C(=O)c2ccc3ccccc3c2)C(=O)N[C@H](Cc2ccc(NC(C)=O)cc2)C(=O)N[C@@H](CC(C)C)C(=O)N[C@@H](CCCCNC(C)C)C(=O)N2CCC[C@H]2C(=O)N[C@H](C)C(N)=O)cc1 (single isomer, unassigned) [Betide No. 3C first isomer, Ac-D/L-Agl(methyl,2-naphthoyl)-D-4Cpa-D-3Pal-Ser-Aph(acetyl)-D-Aph(acetyl)-Leu-Lys(isopropyl)-Pro-D-Ala-NH2]	2 out of 8	fully active			
Ac-D-2Nal-D-Cpa-D-3Pal-Ser-Aph(acetyl)-D-Aph(acetyl)-D/L-Agl(acetyl)-Lys(isopropyl)-Pro-D-Ala-NH2 [Betide No. 6C]			4 out of 8		0 out of 8
Ac-D-2Nal-D-4Cpa-D-3Pal-Ser-Aph(acetyl)-D-Aph(acetyl)-D/L-Agl(methyl,acetyl)-Lys(isopropyl)-Pro-D-Ala-NH2 [Betide No. 6]		2 out of 8			0 out of 8
CC(=O)Nc1ccc(C[C@H](NC(=O)[C@H](CO)NC(=O)C(NC(=O)c2cccnc2)NC(=O)[C@@H](Cc2ccc(Cl)cc2)NC(=O)[C@@H](Cc2ccc3ccccc3c2)NC(C)=O)C(=O)N[C@H](Cc2ccc(NC(C)=O)cc2)C(=O)N[C@@H](CC(C)C)C(=O)N[C@@H](CCCCNC(C)C)C(=O)N2CCC[C@H]2C(=O)N[C@H](C)C(N)=O)cc1 (single isomer, unassigned) [Betide No. 1 isomer (1), Ac-D-2Nal-(4Cl)D-Phe-γ-(3-pyridyl)amidoGly-Ser-Aph(acetyl)-D-Aph(acetyl)-Leu-Lys(isopropyl)-Pro-D-Ala-NH2]	all 3 rats ovulate	0 out of 7			
Ac-D-2Nal-D-4Cpa-D-3Pal-Ser-Aph(acetyl)-D-Aph(acetyl)-D/L-Agl(isobutyryl)- Lys(isopropyl)-Pro-D-Ala-NH2 [Betide No. 6A]	6 out of 8	0 out of 8			0 out of 8
Ac-β-D-2Nal-(4Cl)D-Phe-D-3Pal-Ser-Aph(acetyl)-γ-(4-acetamidophenyl)D/L-amidoGly-Leu-Lys(isopropyl)-Pro-D-Ala-NH2 [Betide No. 5]		2 out of 8		1 out of 8	
Ac-D-2Nal-(4Cl)D-Phe-D-3Pal-Ser-Aph(acetyl)-D-Aph(acetyl)-Leu-Lys(isopropyl)-Pro-D/L-Agl(methyl)-NH2 [Example 8B]		0/8			
CC(=O)Nc1ccc(C[C@H](NC(=O)C(NC(=O)[C@@H](Cc2cccnc2)NC(=O)[C@@H](Cc2ccc(Cl)cc2)NC(=O)[C@@H](Cc2ccc3ccccc3c2)NC(C)=O)N(C)C=O)C(=O)N[C@H](Cc2ccc(NC(C)=O)cc2)C(=O)N[C@@H](CC(C)C)C(=O)N[C@@H](CCCCNC(C)C)C(=O)N2CCC[C@H]2C(=O)N[C@H](C)C(N)=O)cc1 (single isomer, unassigned) [Betide No. 2 other distereomer, Ac-D-2Nal-D-4Cpa-D-3Pal-D/L-(methyl,formyl)aminoGly-Aph(Ac)-D-Aph(Ac)-Leu- Lys(isopropyl)-Pro-D-Ala-NH2]		8 out of 8			
Ac-γ-(2-naphthoyl)amidoGly-4Cl-D-Phe-D-3Pal-Ser-Aph(atz)-D-Aph(atz)- Leu-Lys(isopropyl)-Pro-D-Ala-NH2 [Betide No. 3A first isomer]	5 out of 8	0/8			
CC(=O)Nc1ccc(C[C@H](NC(=O)[C@H](CO)NC(=O)C(NC(=O)c2cccnc2)NC(=O)[C@@H](Cc2ccc(Cl)cc2)NC(=O)[C@@H](Cc2ccc3ccccc3c2)NC(C)=O)C(=O)N[C@H](Cc2ccc(NC(C)=O)cc2)C(=O)N[C@@H](CC(C)C)C(=O)N[C@@H](CCCCNC(C)C)C(=O)N2CCC[C@H]2C(=O)N[C@H](C)C(N)=O)cc1 (single isomer, unassigned) [Betide No. 1 isomer (2), Ac-D-2Nal-(4Cl)D-Phe-γ-(3-pyridyl)amidoGly-Ser-Aph(acetyl)-D-Aph(acetyl)-Leu-Lys(isopropyl)-Pro-D-Ala-NH2]	6 out of 14	0 out of 5	3 out of 4		
Ac-γ-(2-naphthoyl)amidoGly-4Cl-D-Phe-D-3Pal-Ser-Aph(atz)-D-Aph(atz)- Leu-Lys(isopropyl)-Pro-D-Ala-NH2 [Betide No. 3A second isomer]	4 out of 8	0/3			
CC(=O)Nc1ccc(C[C@H](NC(=O)C(NC(=O)[C@@H](Cc2cccnc2)NC(=O)[C@@H](Cc2ccc(Cl)cc2)NC(=O)[C@@H](Cc2ccc3ccccc3c2)NC(C)=O)N(C)C=O)C(=O)N[C@H](Cc2ccc(NC(C)=O)cc2)C(=O)N[C@@H](CC(C)C)C(=O)N[C@@H](CCCCNC(C)C)C(=O)N2CCC[C@H]2C(=O)N[C@H](C)C(N)=O)cc1 (single isomer, unassigned) [Betide No. 2 one isomer, Ac-D-2Nal-D-4Cpa-D-3Pal-D/L-(methyl,formyl)aminoGly-Aph(Ac)-D-Aph(Ac)-Leu- Lys(isopropyl)-Pro-D-Ala-NH2]		5 out of 8			
CC(=O)Nc1ccc(C[C@H](NC(=O)C(NC(=O)CO)NC(=O)[C@@H](Cc2cccnc2)NC(=O)[C@@H](Cc2ccc(Cl)cc2)NC(=O)[C@@H](Cc2ccc3ccccc3c2)NC(C)=O)C(=O)N[C@H](Cc2ccc(NC(C)=O)cc2)C(=O)N[C@@H](CC(C)C)C(=O)N[C@@H](CCCCNC(C)C)C(=O)N2CCC[C@H]2C(=O)N[C@H](C)C(N)=O)cc1 (single isomer, unassigned) [Betide No. 2A one of the isomers, Ac-D-2Nal-D-4Cpa-D-3Pal-D/L-Agl(HO-Ac)Aph(Ac)-D-Aph(Ac)-Leu-Lys(isopropyl)-Pro-D-Ala-NH2]				2 out of 8	
Ac-D-2Nal-(4Cl)D-Phe-D-3Pal-Ser-(4-acetyl-aminobenzyl)D/L-amidoGly-D-Aph(acetyl)-Leu-Lys(isopropyl)-Pro-D-Ala-NH2 [Betide No. 4]				2 out of 8	
CC(=O)Nc1ccc(C[C@H](NC(=O)C(NC(=O)CO)NC(=O)[C@@H](Cc2cccnc2)NC(=O)[C@@H](Cc2ccc(Cl)cc2)NC(=O)[C@@H](Cc2ccc3ccccc3c2)NC(C)=O)C(=O)N[C@H](Cc2ccc(NC(C)=O)cc2)C(=O)N[C@@H](CC(C)C)C(=O)N[C@@H](CCCCNC(C)C)C(=O)N2CCC[C@H]2C(=O)N[C@H](C)C(N)=O)cc1 (single isomer, unassigned) [Betide No. 2A other isomer, Ac-D-2Nal-D-4Cpa-D-3Pal-D/L-Agl(HO-Ac)Aph(Ac)-D-Aph(Ac)-Leu-Lys(isopropyl)-Pro-D-Ala-NH2]				4 out of 8	
CC(=O)Nc1ccc(C[C@H](NC(=O)C(NC=O)NC(=O)[C@@H](Cc2cccnc2)NC(=O)[C@@H](Cc2ccc(Cl)cc2)NC(=O)[C@@H](Cc2ccc3ccccc3c2)NC(C)=O)C(=O)N[C@H](Cc2ccc(NC(C)=O)cc2)C(=O)N[C@@H](CC(C)C)C(=O)N[C@@H](CCCCNC(C)C)C(=O)N2CCC[C@H]2C(=O)N[C@H](C)C(N)=O)cc1 (single isomer, unassigned) [Betide No. 2B other isomer, Ac-D-2Nal-D-4Cpa-D-3Pal-D/L-Agl(formyl)-Aph(Ac)-D-Aph(Ac)-Leu-Lys(isopropyl)-Pro-D-Ala-NH2]	6 out of 8			0/8	

— US5807983A, “GNRH antagonist betides” (The Salk Institute for Biological Studies, priority 1996, dated 1998)
